In patent publication US10617672B2, “Liposome composition co-encapsulating doxorubicin and a prodrug of mitomycin C” (LIPOMEDIX PHARMACEUTICALS LTD., priority 2015, dated 2020):
Read-outs that look alike come from different tables or passages of the source.

Tests used:
[1] = tested on: NCI/ADR cells; assay: In vitro cytotoxicity, methylene blue staining, 72 h; format: cell-based; details: 72 hours at 37° C.
Description: (§1) For comparison, liposomes with entrapped doxorubicin with ammonium sulfate gradient and a coating of polyethyleneglycol (PEG) (available under the tradename DOXIL®), liposomes with the mitomycin C prodrug conjugate incorporated into the lipid bilayer and a coating of PEG (sometimes referred to in the literature by the tradename PROMITIL®) were also evaluated in the cell lines, along with free doxorubicin and liposomes with encapsulated doxorubicin with ammonium alendronate gradient and a coating of PEG (U.S. 2014/0328899, incorporated by reference herein).
(§2) In the cytotoxicity assay, cells were seeded in 96-multiwell plates. After overnight incubation, the drugs or liposome compositions were added at various concentrations and cells were incubated further for a total exposure of 72 hrs. Cell growth was evaluated colorimetrically with methylene blue staining and growth rates and IC50 values were calculated as known in the literature.

[2] = tested on: multidrug resistant M109R lung carcinoma cells; assay: as above; format: cell-based; details: 72 hours at 37° C.
Description: as §1, §2

[3] = tested on: 4T1 breast tumor; assay: Antitumor activity in mouse 4T1 breast tumor model; format: in vivo; details: BALB/c mice, single i.v. dose eight days after inoculation
Description: BALB/c mice were inoculated intravenously with 100,000 cells 4T1 breast cancer cells to produce tumors. Three were approximately eight tumor-bearing mice in each of the treatment groups.
Eight days after inoculation, the test formulations were administered intravenously.

[4] = tested on: T-24 bladder cancer cells; assay: Cell uptake of doxorubicin and mitomycin C prodrug conjugate; format: cell-based, human; details: T-24 cells, 3 hours of incubation; doxorubicin 6.5 μmoles/L (3.7 μg/mL), MLP 5 μmoles/L (5.7 μg/mL)
Description: In brief, the liposomal compositions or free doxorubicin were incubated for 3 hours with the cell lines at a doxorubicin concentration of 6.5 μmoles/L (3.7 μg/mL) and final mitomycin C lipid prodrug conjugate concentration of 5 μmoles/L (5.7 μg/mL).
Cell uptake studies were done as follows. 1×10^6 cells were incubated for 3 hours with the various test agents at a doxorubicin concentration of 6.5 μmoles/mL (3.7 μg/mL) and final mitomycin C lipid prodrug conjugate concentration of 5 μmoles/mL (5.7 μg/mL) and a phospholipid concentration similar to that of liposomes with entrapped doxorubicin (40 nanomoles/mL).

[5] = tested on: N-87 gastric carcinoma cells; assay: In vitro cytotoxicity, methylene blue staining, 72 h; format: cell-based, human; details: N-87 cells, 72 hours at 37° C.
Description: as §1, §2

[6] = tested on: IGrov-1 ovarian carcinoma cells; assay: as above; format: cell-based, human; details: IGrov-1 cells, 72 hours at 37° C.
Description: as §1, §2

[7] = tested on: T24 bladder cancer carcinoma cells; assay: as above; format: cell-based, human; details: 72 hours at 37° C.
Description: as §1, §2

[8] = as doxorubicin concentration, read-out: IC50 of doxorubicin
[9] = as mitomycin C concentration, read-out: IC50 of Mitomycin C

Structure (SMILES)	IC50 [1, 8] [nM]	IC50 [2, 8] [µM]	time after treatment at which tumor approached 5.5 mm [3] [days]	tumor growth (FIG. 15), in words ([3]; doses in Example 7)	Doxorubicin Concentration [4] [ng/10^6 cells]	IC50 [5, 8] [nM]	IC50 [6, 8] [nM]	IC50 ([7]; as doxorubicin concentration, read-out: C50 of doxorubicin) [nM]	IC50 [1, 9] [nM]	IC50 [2, 9] [µM]	IC50 [5, 9] [nM]	IC50 [6, 9] [nM]	IC50 [7, 9] [nM]
COc1cccc2c1C(=O)c1c(O)c3c(c(O)c1C2=O)C[C@@](O)(C(=O)CO)C[C@@H]3O[C@H]1C[C@H](N)[C@H](O)[C@H](C)O1 [free doxorubicin, doxorubicin]	2500	8.7	10	continued and rapid tumor growth	739	190	1100	100					
CO[C@@]12[C@H](COC(N)=O)C3=C(C(=O)C(C)=C(N)C3=O)N1C[C@@H]1N[C@@H]12 [free mitomycin C, mitomycin C]									400	0.3	180	700	50
